Measured values as given in PMC5564600 (Oncotarget, 2017).

Legend:
Assay in all cases: biochemical
Format in all cases: binding
[1] = molecular target: T1, panel of 442 kinases (Homo sapiens, UniProt O14578); conditions: CIT; for remaining activity at 1 µM: read-out: % of control at 1 µM
T1 construct: purchased Ambit Biosciences (scanMAXX KINOMEscan)

[2] = molecular target: T2, panel of 442 kinases (Homo sapiens, UniProt O15075); conditions: DCAMKL1; for remaining activity at 1 µM: read-out: % of control at 1 µM
T2 construct: purchased Ambit Biosciences (scanMAXX KINOMEscan)
T2 sequence (O15075 whole entry): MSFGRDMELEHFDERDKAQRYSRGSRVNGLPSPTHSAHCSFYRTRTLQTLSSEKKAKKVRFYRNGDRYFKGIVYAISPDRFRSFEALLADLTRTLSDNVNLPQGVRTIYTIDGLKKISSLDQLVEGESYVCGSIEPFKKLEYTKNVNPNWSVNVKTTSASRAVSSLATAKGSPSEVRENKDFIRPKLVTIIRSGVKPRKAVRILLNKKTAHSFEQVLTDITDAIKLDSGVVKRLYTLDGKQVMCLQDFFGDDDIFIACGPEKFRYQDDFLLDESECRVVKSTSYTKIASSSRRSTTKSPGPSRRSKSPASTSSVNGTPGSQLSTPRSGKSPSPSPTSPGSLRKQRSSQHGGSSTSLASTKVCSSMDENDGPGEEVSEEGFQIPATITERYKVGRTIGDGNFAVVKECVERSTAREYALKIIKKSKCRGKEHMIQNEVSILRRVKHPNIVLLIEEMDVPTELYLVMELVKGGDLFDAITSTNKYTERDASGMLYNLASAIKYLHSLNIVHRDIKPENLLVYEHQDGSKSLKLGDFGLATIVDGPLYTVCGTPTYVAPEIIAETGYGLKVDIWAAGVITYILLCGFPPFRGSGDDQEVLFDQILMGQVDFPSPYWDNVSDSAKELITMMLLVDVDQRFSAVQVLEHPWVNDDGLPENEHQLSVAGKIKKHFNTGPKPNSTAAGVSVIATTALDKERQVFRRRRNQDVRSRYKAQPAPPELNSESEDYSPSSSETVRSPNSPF

[3] = molecular target: T3, panel of 442 kinases (Homo sapiens, UniProt P0C264); conditions: kinase SgK110; for remaining activity at 1 µM: read-out: SgK110 (% of control at 1 µM)
T3 construct: purchased Ambit Biosciences (scanMAXX KINOMEscan)
T3 sequence (P0C264 1-359): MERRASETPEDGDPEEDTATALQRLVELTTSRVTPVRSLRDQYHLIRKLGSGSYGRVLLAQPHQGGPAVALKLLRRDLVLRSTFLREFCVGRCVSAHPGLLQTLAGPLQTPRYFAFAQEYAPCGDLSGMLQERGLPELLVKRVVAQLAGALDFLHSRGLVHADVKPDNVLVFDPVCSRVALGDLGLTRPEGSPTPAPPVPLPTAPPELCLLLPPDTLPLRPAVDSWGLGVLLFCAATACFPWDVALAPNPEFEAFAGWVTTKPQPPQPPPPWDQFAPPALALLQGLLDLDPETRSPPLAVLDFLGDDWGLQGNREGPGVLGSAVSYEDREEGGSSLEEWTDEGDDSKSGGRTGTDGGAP

[4] = molecular target: T4, panel of 442 kinases (Homo sapiens, UniProt P41240); conditions: CSK; for remaining activity at 1 µM: read-out: % of control at 1 µM
T4 construct: purchased Ambit Biosciences (scanMAXX KINOMEscan)
T4 sequence (P41240 whole entry): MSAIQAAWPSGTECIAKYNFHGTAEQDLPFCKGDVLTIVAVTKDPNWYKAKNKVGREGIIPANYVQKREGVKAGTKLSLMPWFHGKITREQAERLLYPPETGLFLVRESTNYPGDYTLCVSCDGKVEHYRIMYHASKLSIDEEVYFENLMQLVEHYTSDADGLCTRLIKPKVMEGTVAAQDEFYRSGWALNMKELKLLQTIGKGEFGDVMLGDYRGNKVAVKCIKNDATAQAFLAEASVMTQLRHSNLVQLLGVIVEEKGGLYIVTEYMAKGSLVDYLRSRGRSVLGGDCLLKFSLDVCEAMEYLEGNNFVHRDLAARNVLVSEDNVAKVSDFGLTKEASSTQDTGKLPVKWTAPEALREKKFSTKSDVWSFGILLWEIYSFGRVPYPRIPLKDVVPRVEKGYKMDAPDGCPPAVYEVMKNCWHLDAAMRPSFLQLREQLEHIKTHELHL

[5] = molecular target: T5, panel of 442 kinases (Homo sapiens, UniProt P51617); conditions: kinase IRAK1; for remaining activity at 1 µM: read-out: % of control at 1 µM
T5 construct: purchased Ambit Biosciences (scanMAXX KINOMEscan)
T5 sequence (P51617 whole entry): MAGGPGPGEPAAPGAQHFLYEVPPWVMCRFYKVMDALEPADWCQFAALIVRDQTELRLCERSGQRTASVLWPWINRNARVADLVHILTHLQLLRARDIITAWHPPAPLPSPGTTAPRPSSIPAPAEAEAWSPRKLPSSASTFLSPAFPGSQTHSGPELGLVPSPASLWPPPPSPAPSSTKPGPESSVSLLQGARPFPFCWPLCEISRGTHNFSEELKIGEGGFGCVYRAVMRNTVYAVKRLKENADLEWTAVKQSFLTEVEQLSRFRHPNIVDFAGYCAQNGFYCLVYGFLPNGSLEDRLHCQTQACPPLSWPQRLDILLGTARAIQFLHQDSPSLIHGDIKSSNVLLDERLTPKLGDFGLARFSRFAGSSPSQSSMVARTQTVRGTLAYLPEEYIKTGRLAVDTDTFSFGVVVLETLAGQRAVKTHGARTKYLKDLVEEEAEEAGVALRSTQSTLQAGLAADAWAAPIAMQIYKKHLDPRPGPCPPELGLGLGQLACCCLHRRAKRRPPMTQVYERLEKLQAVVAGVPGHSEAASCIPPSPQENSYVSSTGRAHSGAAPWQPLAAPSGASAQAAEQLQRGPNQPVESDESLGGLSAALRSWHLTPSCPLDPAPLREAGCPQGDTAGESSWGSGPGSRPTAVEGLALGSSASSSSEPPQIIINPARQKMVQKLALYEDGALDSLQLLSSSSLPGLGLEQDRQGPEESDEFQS

[6] = molecular target: T6, panel of 442 kinases (Homo sapiens, UniProt P51813); conditions: BMX; for remaining activity at 1 µM: read-out: % of control at 1 µM
T6 construct: purchased Ambit Biosciences (scanMAXX KINOMEscan)
T6 sequence (P51813 1-675): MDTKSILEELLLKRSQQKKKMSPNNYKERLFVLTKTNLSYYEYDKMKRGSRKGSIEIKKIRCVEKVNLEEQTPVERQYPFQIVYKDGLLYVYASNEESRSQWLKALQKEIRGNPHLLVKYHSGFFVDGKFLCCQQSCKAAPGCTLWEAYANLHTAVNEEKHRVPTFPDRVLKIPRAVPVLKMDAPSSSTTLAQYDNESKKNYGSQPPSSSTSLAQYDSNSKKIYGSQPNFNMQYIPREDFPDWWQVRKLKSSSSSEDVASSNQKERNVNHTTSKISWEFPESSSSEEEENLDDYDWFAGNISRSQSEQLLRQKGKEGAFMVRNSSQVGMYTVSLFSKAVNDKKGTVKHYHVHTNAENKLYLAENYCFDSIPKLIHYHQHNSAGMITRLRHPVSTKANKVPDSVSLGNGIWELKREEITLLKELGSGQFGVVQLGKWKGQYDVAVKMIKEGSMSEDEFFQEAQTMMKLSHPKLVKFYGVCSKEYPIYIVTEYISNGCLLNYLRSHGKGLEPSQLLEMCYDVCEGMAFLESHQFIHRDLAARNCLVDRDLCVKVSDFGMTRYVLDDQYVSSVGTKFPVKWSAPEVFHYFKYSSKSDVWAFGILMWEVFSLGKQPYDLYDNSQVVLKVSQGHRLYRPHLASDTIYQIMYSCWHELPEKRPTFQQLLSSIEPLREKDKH

[7] = molecular target: T7, panel of 442 kinases (Homo sapiens, UniProt Q08345); conditions: DDR1; for remaining activity at 1 µM: read-out: % of control at 1 µM
T7 construct: purchased Ambit Biosciences (scanMAXX KINOMEscan)
T7 sequence (Q08345 19-913): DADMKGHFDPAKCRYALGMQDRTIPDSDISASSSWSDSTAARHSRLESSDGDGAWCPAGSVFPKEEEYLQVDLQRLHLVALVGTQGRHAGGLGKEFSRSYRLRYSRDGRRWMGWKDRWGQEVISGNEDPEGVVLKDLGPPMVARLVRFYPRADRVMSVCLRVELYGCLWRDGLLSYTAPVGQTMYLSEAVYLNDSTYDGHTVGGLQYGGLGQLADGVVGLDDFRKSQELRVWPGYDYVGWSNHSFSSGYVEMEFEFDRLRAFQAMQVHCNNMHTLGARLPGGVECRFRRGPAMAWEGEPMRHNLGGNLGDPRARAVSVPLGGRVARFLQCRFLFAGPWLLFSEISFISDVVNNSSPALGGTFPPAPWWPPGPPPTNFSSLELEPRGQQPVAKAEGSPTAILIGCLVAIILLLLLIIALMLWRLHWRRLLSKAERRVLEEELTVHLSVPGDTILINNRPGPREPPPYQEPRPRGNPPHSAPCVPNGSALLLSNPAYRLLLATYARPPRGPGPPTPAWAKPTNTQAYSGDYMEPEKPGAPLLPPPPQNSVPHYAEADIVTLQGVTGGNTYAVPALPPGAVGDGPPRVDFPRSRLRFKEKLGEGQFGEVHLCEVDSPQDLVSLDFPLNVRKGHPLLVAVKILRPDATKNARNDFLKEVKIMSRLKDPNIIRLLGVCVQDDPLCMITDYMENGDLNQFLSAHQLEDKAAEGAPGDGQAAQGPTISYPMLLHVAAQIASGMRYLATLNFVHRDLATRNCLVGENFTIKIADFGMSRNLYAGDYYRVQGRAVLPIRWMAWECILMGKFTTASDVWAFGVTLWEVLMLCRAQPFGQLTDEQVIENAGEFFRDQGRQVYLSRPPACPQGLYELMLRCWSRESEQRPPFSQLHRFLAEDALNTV

[8] = molecular target: T8, panel of 442 kinases (Homo sapiens, UniProt Q13523); conditions: kinase PRP4; for remaining activity at 1 µM: read-out: PRP4 (% of control at 1 µM)
T8 construct: purchased Ambit Biosciences (scanMAXX KINOMEscan)

[9] = molecular target: T9, panel of 442 kinases (Homo sapiens, UniProt Q13557); conditions: CAMK2D; for remaining activity at 1 µM: read-out: % of control at 1 µM
T9 construct: purchased Ambit Biosciences (scanMAXX KINOMEscan)
T9 sequence (Q13557 whole entry): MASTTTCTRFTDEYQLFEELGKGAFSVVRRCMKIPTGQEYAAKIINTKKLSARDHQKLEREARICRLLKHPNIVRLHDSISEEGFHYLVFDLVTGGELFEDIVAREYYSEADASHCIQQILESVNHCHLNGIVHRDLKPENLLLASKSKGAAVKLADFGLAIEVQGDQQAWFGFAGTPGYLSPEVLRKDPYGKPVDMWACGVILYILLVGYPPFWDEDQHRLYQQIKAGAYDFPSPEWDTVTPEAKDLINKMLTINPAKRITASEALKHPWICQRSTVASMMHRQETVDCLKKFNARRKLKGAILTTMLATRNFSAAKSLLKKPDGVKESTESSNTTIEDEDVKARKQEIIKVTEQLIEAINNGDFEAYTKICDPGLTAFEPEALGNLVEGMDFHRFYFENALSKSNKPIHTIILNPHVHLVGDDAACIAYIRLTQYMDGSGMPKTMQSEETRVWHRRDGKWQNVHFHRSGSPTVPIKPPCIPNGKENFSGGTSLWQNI

[10] = molecular target: T10, panel of 442 kinases (Homo sapiens, UniProt Q16832); conditions: DDR2; for remaining activity at 1 µM: read-out: % of control at 1 µM
T10 construct: purchased Ambit Biosciences (scanMAXX KINOMEscan)
T10 sequence (Q16832 22-855): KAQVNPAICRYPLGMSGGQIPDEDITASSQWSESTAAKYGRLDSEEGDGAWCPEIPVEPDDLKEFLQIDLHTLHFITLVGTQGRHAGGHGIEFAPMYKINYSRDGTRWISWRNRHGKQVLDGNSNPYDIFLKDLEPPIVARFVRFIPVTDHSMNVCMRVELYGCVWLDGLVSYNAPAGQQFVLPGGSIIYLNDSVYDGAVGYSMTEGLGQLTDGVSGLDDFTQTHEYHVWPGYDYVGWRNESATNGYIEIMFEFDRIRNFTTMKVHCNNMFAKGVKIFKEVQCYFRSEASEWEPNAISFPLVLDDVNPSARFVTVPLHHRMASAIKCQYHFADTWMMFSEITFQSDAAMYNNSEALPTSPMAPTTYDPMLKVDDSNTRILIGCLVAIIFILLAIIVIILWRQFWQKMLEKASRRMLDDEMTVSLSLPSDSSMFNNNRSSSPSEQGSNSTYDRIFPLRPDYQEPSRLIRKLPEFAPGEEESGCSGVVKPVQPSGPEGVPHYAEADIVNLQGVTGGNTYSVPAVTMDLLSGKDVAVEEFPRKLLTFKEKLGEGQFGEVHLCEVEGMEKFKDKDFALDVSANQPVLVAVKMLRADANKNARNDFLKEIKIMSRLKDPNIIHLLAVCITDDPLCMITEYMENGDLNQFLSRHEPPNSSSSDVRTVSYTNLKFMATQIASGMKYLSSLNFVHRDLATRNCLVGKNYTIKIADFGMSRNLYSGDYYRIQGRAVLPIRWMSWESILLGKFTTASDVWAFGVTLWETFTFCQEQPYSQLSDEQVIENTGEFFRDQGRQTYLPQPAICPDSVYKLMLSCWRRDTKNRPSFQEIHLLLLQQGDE

[11] = molecular target: T11, panel of 442 kinases (Homo sapiens, UniProt Q8IY84); conditions: kinase NIM1; for remaining activity at 1 µM: read-out: % of control at 1 µM
T11 construct: purchased Ambit Biosciences (scanMAXX KINOMEscan)

[12] = molecular target: T12, panel of 442 kinases (Homo sapiens, UniProt Q9H2X6); conditions: kinase HIPK2; for remaining activity at 1 µM: read-out: % of control at 1 µM
T12 construct: purchased Ambit Biosciences (scanMAXX KINOMEscan)
T12 sequence (Q9H2X6 whole entry): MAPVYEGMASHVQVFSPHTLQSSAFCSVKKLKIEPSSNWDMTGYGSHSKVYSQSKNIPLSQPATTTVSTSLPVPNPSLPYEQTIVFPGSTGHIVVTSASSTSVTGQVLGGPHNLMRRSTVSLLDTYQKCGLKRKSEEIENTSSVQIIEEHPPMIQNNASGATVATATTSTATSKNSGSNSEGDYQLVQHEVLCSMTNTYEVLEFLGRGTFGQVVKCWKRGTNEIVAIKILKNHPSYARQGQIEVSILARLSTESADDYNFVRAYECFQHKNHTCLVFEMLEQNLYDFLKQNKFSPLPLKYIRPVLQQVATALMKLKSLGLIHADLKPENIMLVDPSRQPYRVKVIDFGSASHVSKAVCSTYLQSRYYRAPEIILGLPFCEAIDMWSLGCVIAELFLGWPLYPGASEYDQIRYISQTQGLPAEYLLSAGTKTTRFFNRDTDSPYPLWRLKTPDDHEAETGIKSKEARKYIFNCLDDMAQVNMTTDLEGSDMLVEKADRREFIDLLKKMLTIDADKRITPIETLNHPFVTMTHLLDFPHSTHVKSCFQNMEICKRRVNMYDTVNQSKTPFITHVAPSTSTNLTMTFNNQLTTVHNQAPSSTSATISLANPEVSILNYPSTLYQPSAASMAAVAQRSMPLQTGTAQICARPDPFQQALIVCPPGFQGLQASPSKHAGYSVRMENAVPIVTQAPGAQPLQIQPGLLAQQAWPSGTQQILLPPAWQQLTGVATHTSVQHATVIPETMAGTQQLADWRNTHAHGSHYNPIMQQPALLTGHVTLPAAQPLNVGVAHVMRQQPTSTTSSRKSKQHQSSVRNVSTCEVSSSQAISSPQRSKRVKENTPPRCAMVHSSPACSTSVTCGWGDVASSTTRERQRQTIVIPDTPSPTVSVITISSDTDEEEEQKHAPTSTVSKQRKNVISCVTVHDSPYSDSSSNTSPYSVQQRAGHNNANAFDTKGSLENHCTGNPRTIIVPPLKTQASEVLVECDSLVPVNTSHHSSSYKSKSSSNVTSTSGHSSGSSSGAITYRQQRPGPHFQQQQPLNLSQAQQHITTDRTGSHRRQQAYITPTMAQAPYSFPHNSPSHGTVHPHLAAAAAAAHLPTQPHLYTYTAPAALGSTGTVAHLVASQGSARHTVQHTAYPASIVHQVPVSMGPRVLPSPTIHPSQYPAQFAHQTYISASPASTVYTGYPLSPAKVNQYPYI

[13] = molecular target: T13, panel of 442 kinases (Homo sapiens, UniProt Q9Y6M4); conditions: CSNK1G3; for remaining activity at 1 µM: read-out: % of control at 1 µM
T13 construct: purchased Ambit Biosciences (scanMAXX KINOMEscan)
T13 sequence (Q9Y6M4 whole entry): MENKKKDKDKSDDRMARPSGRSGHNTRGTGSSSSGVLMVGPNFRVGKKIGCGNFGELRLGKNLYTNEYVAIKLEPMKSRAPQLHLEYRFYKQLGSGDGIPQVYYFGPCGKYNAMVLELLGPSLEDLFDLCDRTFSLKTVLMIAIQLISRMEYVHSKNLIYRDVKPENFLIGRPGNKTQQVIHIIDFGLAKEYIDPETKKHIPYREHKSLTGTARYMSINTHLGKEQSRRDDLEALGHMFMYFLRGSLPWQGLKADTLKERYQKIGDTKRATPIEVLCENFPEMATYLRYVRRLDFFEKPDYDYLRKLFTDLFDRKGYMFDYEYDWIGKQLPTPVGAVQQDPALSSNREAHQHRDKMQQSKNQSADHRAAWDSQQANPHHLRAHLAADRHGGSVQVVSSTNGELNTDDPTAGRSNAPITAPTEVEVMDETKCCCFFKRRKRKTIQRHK

[14] = 10 µM, read-out: % of control at 10 µM

SMILES | remaining activity at 1 µM [1] [%] | remaining activity at 1 µM [2] [%] | remaining activity at 1 µM [3] [%] | remaining activity at 1 µM [4] [%] | remaining activity at 1 µM [5] [%] | remaining activity at 1 µM [6] [%] | remaining activity at 1 µM [7] [%] | remaining activity at 1 µM [8] [%] | remaining activity at 1 µM [9] [%] | remaining activity at 1 µM [10] [%] | remaining activity at 1 µM [11] [%] | remaining activity at 1 µM [12] [%] | remaining activity at 1 µM [13] [%] | other results
Nc1cc(C(F)(F)F)c(-c2cc(N3CCOCC3)nc(N3CCOCC3)n2)cn1 [Buparlisib] | 100 | 100 | 91 | 94 | 82 | 100 | 100 | 100 | 100 | 96 | 89 | 100 | 100 | remaining activity at 10 µM [1, 14]: 100%; remaining activity at 10 µM [2, 14]: 92%; remaining activity at 10 µM ([3]; 10 µM, read-out: SgK110 (% of control at 10 µM)): 100%; remaining activity at 10 µM [4, 14]: 100%; remaining activity at 10 µM [5, 14]: 71%; remaining activity at 10 µM [6, 14]: 100%; remaining activity at 10 µM [7, 14]: 92%; remaining activity at 10 µM ([8]; 10 µM, read-out: PRP4 (% of control at 10 µM)): 93%; remaining activity at 10 µM [9, 14]: 100%; remaining activity at 10 µM [10, 14]: 84%; remaining activity at 10 µM [11, 14]: 86%; remaining activity at 10 µM [12, 14]: 100%; remaining activity at 10 µM [13, 14]: 100%
Cn1c(=O)n(-c2ccc(C(C)(C)C#N)cc2)c2c3cc(-c4cnc5ccccc5c4)ccc3ncc21 [Dactolisib, 2-methyl-2-[4-(3-methyl-2-oxo-8-quinolin-3-yl-2,3-dihydroimidazo[4,5-c]quinolin-1-yl)-phenyl] propionitrile] | 65 | 100 | 100 | 81 | 54 |  | 100 | 100 | 79 | 97 | 100 | 64 | 72 | 
COc1ncc(-c2ccc3nccc(-c4ccnnc4)c3c2)cc1NS(=O)(=O)c1ccc(F)cc1F [Omipalisib] | 100 | 92 | 100 | 98 | 100 | 96 | 100 | 95 | 100 | 100 | 100 | 91 | 100 | 
FC(F)c1nc2ccccc2n1-c1nc(N2CCOCC2)nc(N2CCOCC2)n1 [ZSTK474, 2-(difluoromethyl)-1-[4,6-di(4-morpholinyl)-1,3,5-triazin-2-yl]-1H-benzimidazole] | 100 | 97 | 100 | 89 | 92 | 99 | 95 | 100 | 88 | 100 | 100 | 86 | 100 | 
